Measurements from US7700786B2, “Pyrazole derivative, intermediate therefor, processes for producing these, and herbicide containing these as active ingredient” (Sagami Chemical Research Center, priority 2001, dated 2010).

How the values were obtained:
Echinochloa oryzicola = assay: Herbicidal efficacy test by pre-emergence treatment under submergence condition; type: in vivo; conditions: 15th day after treatment, ratings of 1 to 5
Text: (§3) A 1/10,000-are pot was filled with paddy field soil, and, after plowing, seeds of Echinochloa oryzicola, Cyperus difformis, Monochoria vaginalis, Scirpus juncoides, Eleocharis acicularis and other annual broadleaf weeds such as Lindernia procumbens, Rotala indica and Elatine triandra were sown. Rice (oryza sativa) seedlings (cultiver “Koshihikari”) at a 2.5-leaf stage were transplanted and kept under a submergence condition. After one day, the wettable powder or emulsifiable concentrate of the compound of the present invention, prepared according to Preparation Example, was diluted and dropped on a water surface at a predetermined dose.

Cyperus difformis = assay: as above; type: in vivo; conditions: 15th day after treatment, ratings of 1 to 5; also: key: 1 shows no influence; 5 shows complete die
Text: as §3

[1] = system: annual broadleaf weeds such as Lindernia procumbens, Rotala indica and Elatine triandra; assay: as above; type: in vivo; conditions: 15th day after treatment, ratings of 1 to 5
Text: as §3

Monochoria vaginalis = assay: as above; type: in vivo; conditions: 15th day after treatment, ratings of 1 to 5; also: key: 1 shows no influence; 5 shows complete die
Text: as §3

Scirpus juncoides = assay: as above; type: in vivo; conditions: 15th day after treatment, ratings of 1 to 5
Text: as §3

Eleocharis acicularis = assay: as above; type: in vivo; conditions: 15th day after treatment, ratings of 1 to 5; also: key: 1 shows no influence; 5 shows complete die
Text: as §3

Amaranthus viridis [2] = assay: Herbicidal efficacy test by soil treatment before germination under upland field condition; type: in vivo; conditions: dose 1 kg/ha; 21st day after treatment; ratings of 1 to 5; also: key: 1 shows no influence; 5 shows complete die
Text: (§1) A vat having an area of 5×10 cm^2 and a depth of 5 cm was filled with upland field soil, and seeds of Chenopodium album, Echinochloa crus-galli, Amaranthus viridis, Digitaria ciliaris and sweet corn (Zea mays) were sown thereon and covered with soil by a depth of 0.5 cm.

Chenopodium album [3] = assay: as above; type: in vivo; conditions: dose 1 kg/ha; 21st day after treatment; ratings of 1 to 5
Text: as §1

Digitaria ciliaris = assay: as above; type: in vivo; conditions: dose 1 kg/ha; 21st day after treatment; ratings of 1 to 5
Text: as §1

Echinochloa crus-galli [4] = assay: as above; type: in vivo; conditions: dose 1 kg/ha; 21st day after treatment; ratings of 1 to 5
Text: as §1

sweet corn (Zea mays) = assay: Injury to corn, soil treatment before germination under upland field condition; type: in vivo; conditions: dose 1 kg/ha; 21st day after treatment; ratings of 1 to 5
Text: as §1

Amaranthus viridis [5] = assay: Herbicidal efficacy test by foliar treatment after germination under upland field condition; type: in vivo; conditions: dose 1 kg/ha, rated 1 to 5 on the 14th day after treatment; also: key: 1 shows no influence; 5 shows complete die
Text: (§2) A vat having an area of 5×10 cm^2 and a depth of 5 cm was filled with upland field soil, and seeds of Chenopodium album, Echinochloa crus-galli, Amaranthus viridis and Abutilon theophrasti were sown thereon and covered with soil by a depth of 0.5 cm. Water was sprayed as required to grow them for 14 days.

Chenopodium album [6] = assay: as above; type: in vivo; conditions: dose 1 kg/ha, rated 1 to 5 on the 14th day after treatment
Text: as §2

Echinochloa crus-galli [7] = assay: as above; type: in vivo; conditions: dose 1 kg/ha, rated 1 to 5 on the 14th day after treatment
Text: as §2

Abutilon theophrasti = assay: as above; type: in vivo; conditions: Dc: Digitaria ciliaris (table footnote; method names Abutilon theophrasti), dose 1 kg/ha, rated 1 to 5 on the 14th day after treatment
[8] = system: Rice (oryza sativa) seedlings (cultiver Koshihikari); conditions: in vivo
Text: as §3
For Herbicidal activity Ca in this document: key: 1 shows no influence; 5 shows complete die.

| Structure (SMILES) | Herbicidal efficacy Eo (Echinochloa oryzicola; dose 0.5 kg/ha) | Herbicidal efficacy Eo (Echinochloa oryzicola; dose 1 kg/ha) | Herbicidal efficacy Cd (Cyperus difformis; dose 0.5 kg/ha) | Herbicidal efficacy Cd (Cyperus difformis; dose 1 kg/ha) | Herbicidal efficacy Blw ([1]; dose 0.5 kg/ha) | Herbicidal efficacy Blw ([1]; dose 1 kg/ha) | Herbicidal efficacy Mv (Monochoria vaginalis; dose 0.5 kg/ha) | Herbicidal efficacy Mv (Monochoria vaginalis; dose 1 kg/ha) | Herbicidal efficacy Sj (Scirpus juncoides; dose 0.5 kg/ha) | Herbicidal efficacy Sj (Scirpus juncoides; dose 1 kg/ha) | Herbicidal efficacy Ea (Eleocharis acicularis; dose 0.5 kg/ha) | Herbicidal efficacy Ea (Eleocharis acicularis; dose 1 kg/ha) | Herbicidal activity Av (Amaranthus viridis [2]) | Herbicidal activity Ca (Chenopodium album [3]) | Herbicidal activity Dc (Digitaria ciliaris) | Herbicidal activity Ec (Echinochloa crus-galli [4]) | Injury Zm (sweet corn (Zea mays)) | Herbicidal activity Av (Amaranthus viridis [5]) | Herbicidal activity Ca (Chenopodium album [6]) | Herbicidal activity Ec (Echinochloa crus-galli [7]) | further results |
| --- | --- | --- | --- | --- | --- | --- | --- | --- | --- | --- | --- | --- | --- | --- | --- | --- | --- | --- | --- | --- | --- |
| Cc1cc(Oc2c(Cl)cc(C(F)(F)F)cc2Cl)nn1C(N)=O [Compound 3-3] | 5 | 5 | 5 | 5 | 5 | 5 | 5 | 5 | 5 | 5 | 5 | 5 | 5 | 5 | 4.5 | 3.5 | 1.5 | 5 | 5 | 4.5 | Herbicidal activity Dc (Abutilon theophrasti): 5; Injury Os [8]: 1.5 |
| COCNC(=S)n1nc(Oc2c(Cl)cc(C(F)(F)F)cc2Cl)cc1C [Compound 3-169] | 5 | 5 | 5 | 5 | 5 | 5 | 5 | 5 | 4 | 4.2 | 5 | 5 | – | – | – | – | – | – | – | – | Injury Os [8]: 1 |
| CCNC(=O)n1nc(Oc2c(Cl)cc(C(F)(F)F)cc2Cl)c(Cl)c1C [Compound 3-253] | 5 | 5 | 5 | 5 | 5 | 5 | 5 | 5 | 5 | 5 | 5 | 5 | 5 | 5 | 5 | 4 | 1.5 | 5 | 5 | 5 | Herbicidal activity Dc (Abutilon theophrasti): 5 |
| CCCNC(=O)n1nc(Oc2c(Cl)cc(C(F)(F)F)cc2Cl)cc1C [Compound 3-74] | 5 | 5 | 5 | 5 | 5 | 5 | 5 | 5 | 5 | 5 | 5 | 5 | 5 | 5 | 5 | 4.9 | 1 | 5 | 5 | 4.9 | Herbicidal activity Dc (Abutilon theophrasti): 5; Injury Os [8]: 1.8 |
| CCNC(=O)n1nc(Oc2c(Cl)cc(C(F)(F)F)cc2Cl)cc1CC [Compound 3-330] | 5 | 5 | 5 | 5 | 5 | 5 | 5 | 5 | 5 | 5 | 5 | 5 | 5 | 5 | 5 | 3.5 | 1.5 | 5 | 5 | 5 | Herbicidal activity Dc (Abutilon theophrasti): 5 |
| CCNC(=S)n1nc(Oc2c(Cl)cc(C(F)(F)F)cc2Cl)cc1C [Compound 3-45] | 5 | 5 | 5 | 5 | 5 | 5 | 5 | 5 | 4 | 5 | 5 | 5 | 5 | 5 | 5 | 5 | 2 | 5 | 5 | 5 | Herbicidal activity Dc (Abutilon theophrasti): 5 |
| Cc1cc(Oc2c(Cl)cc(C(F)(F)F)cc2Cl)nn1C(=O)NCCBr [Compound 3-146] | 5 | 5 | 5 | 5 | 5 | 5 | 5 | 5 | 5 | 5 | 5 | 5 | – | – | – | – | – | – | – | – | Injury Os [8]: 1 |
| Cc1cc(Oc2c(Cl)cc(C(F)(F)F)cc2Cl)nn1C(=O)NCC1CCCO1 (centres unmarked) [Compound 3-183] | 5 | 5 | 5 | 5 | 5 | 5 | 5 | 5 | 5 | 5 | 5 | 5 | 5 | 5 | 4 | 3 | 1 | 5 | 5 | 5 | Herbicidal activity Dc (Abutilon theophrasti): 5; Injury Os [8]: 2 |
| CNC(=O)n1nc(Oc2c(Cl)cc(C(F)(F)F)cc2Cl)c(Cl)c1C [Compound 3-249] | 5 | 5 | 5 | 5 | 5 | 5 | 5 | 5 | 5 | 5 | 5 | 5 | 5 | 5 | 5 | 4.5 | 1.2 | 5 | 5 | 5 | Herbicidal activity Dc (Abutilon theophrasti): 5 |
